Data on 14 compounds can be found in US20250163104A1, “MACROCYCLIC IMMUNOMODULATORS” (priority 2021, published 2025).

Where a SMILES comes first, the peptide text is derived from it. Bridges are numbered along the chain shown (N, C = ends). [ ]: non-standard residue; d: D form. The star is where a group is joined. ξ: configuration not given here. Phe(4-COOH) = N[C@@H](Cc1ccc(C(=O)O)cc1)C(=O)O; Bip = N[C@@H](Cc1ccc(-c2ccccc2)cc1)C(=O)O; Phe(3-Me) = Cc1cccc(C[C@H](N)C(=O)O)c1; Val(3-OH) = CC(C)(O)[C@H](N)C(=O)O; 4Pal = N[C@@H](Cc1ccncc1)C(=O)O; 3Thi = N[C@@H](Cc1ccsc1)C(=O)O; Cha = N[C@@H](CC1CCCCC1)C(=O)O; Cit = NC(=O)NCCC[C@H](N)C(=O)O; dCha = N[C@H](CC1CCCCC1)C(=O)O; Thr(3ξ) = CC(O)[C@H](N)C(=O)O; Phg = N[C@H](C(=O)O)c1ccccc1; dNle = CCCC[C@@H](N)C(=O)O; Carboxymethyl = O=C(O)C*; Nle = CCCC[C@H](N)C(=O)O; Orn = NCCC[C@H](N)C(=O)O; Dab = NCC[C@H](N)C(=O)O; Dap = NC[C@H](N)C(=O)O; Ac3c = NC1(C(=O)O)CC1; NH(CH2)3NH2 = NCCCN*; Propargyl = C#CC*

The term IC50 denotes the concentration that gives 50% inhibition.

In this assay the target is T1, human PD-1 / PD-L1-Ig binding on Jurkat cell line over-expressing human PD-1 (Jurkat-PD-1) (Homo sapiens, UniProt Q15116).
T1 construct: expressed in transfected cells; host or cells: Jurkat
T1 sequence (Q15116 25-288): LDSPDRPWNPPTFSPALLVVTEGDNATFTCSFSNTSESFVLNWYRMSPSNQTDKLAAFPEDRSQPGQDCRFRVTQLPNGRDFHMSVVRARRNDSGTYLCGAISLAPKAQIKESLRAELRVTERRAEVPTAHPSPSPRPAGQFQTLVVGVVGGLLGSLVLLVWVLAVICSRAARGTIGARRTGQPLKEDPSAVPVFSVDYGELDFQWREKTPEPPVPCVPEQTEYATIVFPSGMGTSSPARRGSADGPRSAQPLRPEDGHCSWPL
Briefly: Jurkat-PD-1 Cell Binding High-Content Screening Assay (CBA). It counts as cell-based. As to conditions: Jurkat-PD-1 cells, PE-labeled PD-L1-Ig 20 nM final; read-out: Jurkat HPD1_PDL1 IC50. The method, boiled down: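 PE-PD-L1-Ig 20 nM final; cells in DMEM/10% FCS; cpd pre-incubation 2 h, 37° C; ligand 1 h; PFA fix + Hoechst 33342; high-content imaging read-out.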

For `Cc1cccc(C[C@@H]2NC(=O)[C@H](CC(=O)O)NC(=O)[C@H](Cc3ccc(OCC(=O)O)cc3)NC(=O)[C@H](CCN)NC(=O)CSC[C@@H](C(=O)N[C@@H](CO)C(=O)NCCCN)NC(=O)[C@H](C(C)O)NC(=O)[C@H](C(C)(C)O)NC(=O)[C@H](CC3CCCCC3)NC(=O)[C@H](Cc3cnc[nH]3)NC(=O)[C@@H](CC(C)C)NC(=O)[C@H](CCCN)NC(=O)[C@H](Cc3ccc(OCC(=O)O)cc3)NC(=O)[C@H](Cc3ccc(-c4ccccc4)cc3)NC(=O)[C@H](Cc3ccc(OCC(=O)O)cc3)NC2=O)c1` (stereo partly drawn) [Compound 2648] ({CH2CO}-[Dab]Y(Carboxymethyl)D[Phe(3-Me)]Y(Carboxymethyl)[Bip]Y(Carboxymethyl)[Orn][dL]H[Cha][Val(3-OH)][Thr(3ξ)]CS-{NH(CH2)3NH2}; thioether N-14), the IC50 amounted to 98 nM.
For the compound `Cc1cccc(C[C@@H]2NC(=O)[C@H](CC(=O)O)NC(=O)[C@H](Cc3ccc(C(=O)O)cc3)NC(=O)[C@H](Cc3ccc(OCC(=O)O)cc3)NC(=O)CSC[C@@H](C(=O)N[C@@H](C)C(N)=O)NC(=O)[C@H]([C@@H](C)O)NC(=O)[C@H](C(C)C)NC(=O)[C@H](CC3CCCCC3)NC(=O)[C@H](CCN)NC(=O)[C@@H](CC(C)C)NC(=O)[C@H](CCCN)NC(=O)[C@H](CCCN)NC(=O)[C@H](Cc3ccc(-c4ccccc4)cc3)NC(=O)[C@H](C(C)C)NC2=O)c1` [Compound 1414], the IC50 turned out to be 9.9 nM.
Turning to `CCCC[C@@H]1NC(=O)[C@H](CCN)NC(=O)[C@@H](CC(C)C)NC(=O)[C@H](CCCN)NC(=O)[C@H](C(C)C)NC(=O)[C@H](Cc2ccc(-c3ccccc3)cc2)NC(=O)[C@H](CC(C)C)NC(=O)[C@H](Cc2c[nH]c3ccccc23)NC(=O)[C@H](CC(=O)O)NC(=O)[C@H](Cc2ccc(OCC(=O)O)cc2)NC(=O)[C@H](CN)NC(=O)CSC[C@@H](C(=O)NCC(N)=O)NC(=O)[C@H](CO)NC(=O)[C@H](C(C)C)NC1=O` [Compound 1408] ({CH2CO}-[Dap]Y(Carboxymethyl)DWL[Bip]V[Orn][dL][Dab][Nle]VSCG-NH2; thioether N-14), the IC50 turned out to be 8.2 nM.
On to `CC(C)[C@@H]1NC(=O)[C@H](Cc2c[nH]c3ccccc23)NC(=O)[C@H](CC(=O)O)NC(=O)[C@H](Cc2ccc(OCC(=O)O)cc2)NC(=O)[C@H](Cc2ccc(OCC(=O)O)cc2)NC(=O)CSC[C@@H](C(=O)N[C@@H](C)C(N)=O)NC(=O)[C@H]([C@@H](C)O)NC(=O)[C@H](C(C)C)NC(=O)[C@H](CC2CCCCC2)NC(=O)[C@H](CCN)NC(=O)[C@@H](CC2CCCCC2)NC(=O)[C@H](CCCN)NC(=O)[C@H](C(C)C)NC(=O)[C@H](Cc2ccc(-c3ccccc3)cc2)NC1=O` [Compound 1633] ({CH2CO}-Y(Carboxymethyl)Y(Carboxymethyl)DWV[Bip]V[Orn][dCha][Dab][Cha]VTCA-NH2; thioether N-14), for which the IC50 was 20.2 nM.
In the case of `CCCC[C@H]1NC(=O)[C@H](CCCN)NC(=O)[C@H]([C@@H](C)CC)NC(=O)[C@H](Cc2ccc(-c3ccccc3)cc2)NC(=O)[C@H](C(C)C)NC(=O)[C@H](Cc2c[nH]c3ccccc23)NC(=O)[C@H](CC(=O)O)NC(=O)[C@H](Cc2ccncc2)NC(=O)[C@H](Cc2ccc(OCC(=O)O)cc2)NC(=O)CSC[C@@H](C(=O)N[C@@H](C)C(N)=O)NC(=O)[C@H]([C@@H](C)O)NC(=O)[C@H](C(C)C)NC(=O)[C@H](CC2CCCCC2)NC(=O)[C@H](CCN)NC1=O` [Compound 1710] ({CH2CO}-Y(Carboxymethyl)[4Pal]DWV[Bip]I[Orn][dNle][Dab][Cha]VTCA-NH2; thioether N-14) it was 33.9 nM; in that of `C#CCOc1ccc(C[C@@H]2NC(=O)[C@H](Cc3cccc(C)c3)NC(=O)[C@H](CC(=O)O)NC(=O)[C@H](Cc3ccc(OCC(=O)O)cc3)NC(=O)[C@H](CCCNC(=N)N)NC(=O)CSC[C@@H](C(=O)N[C@@H](CCN)C(N)=O)NC(=O)[C@H](CCC(=O)O)NC(=O)[C@H](C(C)C)NC(=O)[C@H](CC3CCCCC3)NC(=O)[C@H](CCN)NC(=O)[C@@H](CC(C)C)NC(=O)[C@H](CCCN)NC(=O)[C@H](Cc3ccc(OCC(=O)O)cc3)NC(=O)[C@H](Cc3ccc(-c4ccccc4)cc3)NC2=O)cc1` [Compound 1818] ({CH2CO}-RY(Carboxymethyl)D[Phe(3-Me)]Y(Propargyl)[Bip]Y(Carboxymethyl)[Orn][dL][Dab][Cha]VEC[Dab]-NH2; thioether N-14), 2.3 nM.
As for `CC(C)C[C@H]1NC(=O)[C@H](CCCN)NC(=O)[C@H](C(C)C)NC(=O)[C@H](Cc2ccc(-c3ccccc3)cc2)NC(=O)[C@H](c2ccccc2)NC(=O)[C@H](Cc2c[nH]c3ccccc23)NC(=O)[C@H](CC(=O)O)NC(=O)[C@H](Cc2ccc(OCC(=O)O)cc2)NC(=O)[C@H](CN)NC(=O)CSC[C@@H](C(=O)N[C@@H](C)C(N)=O)NC(=O)[C@H]([C@@H](C)O)NC(=O)[C@H](C(C)C)NC(=O)[C@H](CC2CCCCC2)NC(=O)[C@H](CCN)NC1=O` [Compound 1736] ({CH2CO}-[Dap]Y(Carboxymethyl)DW[Phg][Bip]V[Orn][dL][Dab][Cha]VTCA-NH2; thioether N-14), the half-maximal inhibitory concentration (IC50) is 14 nM.
In the case of `Cc1cccc(C[C@@H]2NC(=O)[C@H](CC(=O)O)NC(=O)[C@H](Cc3ccc(OCC(=O)O)cc3)NC(=O)[C@H](Cc3ccncc3)NC(=O)CSC[C@@H](C(=O)N[C@@H](CCN)C(N)=O)NC(=O)[C@H](CO)NC(=O)[C@H](C(C)(C)O)NC(=O)[C@H](CC3CCCCC3)NC(=O)[C@H](CCN)NC(=O)[C@@H](CC(C)C)NC(=O)C3(CC3)NC(=O)[C@H](Cc3ccc(OCC(=O)O)cc3)NC(=O)[C@H](Cc3ccc(-c4ccccc4)cc3)NC(=O)[C@H](Cc3ccc(OCC(=O)O)cc3)NC2=O)c1` [Compound 2082] ({CH2CO}-[4Pal]Y(Carboxymethyl)D[Phe(3-Me)]Y(Carboxymethyl)[Bip]Y(Carboxymethyl)[Ac3c][dL][Dab][Cha][Val(3-OH)]SC[Dab]-NH2; thioether N-14) it was 111 nM.
Under `Cc1cccc(C[C@@H]2NC(=O)[C@H](CC(=O)O)NC(=O)[C@H](Cc3ccc(OCC(=O)O)cc3)NC(=O)[C@H](Cc3ccncc3)NC(=O)CSC[C@@H](C(=O)NCC(N)=O)NC(=O)[C@H](CO)NC(=O)[C@H](C(C)C)NC(=O)[C@H](CC(C)C)NC(=O)[C@H](CCN)NC(=O)[C@@H](CC(C)C)NC(=O)[C@H](CCCN)NC(=O)[C@H](C(C)C)NC(=O)[C@H](Cc3ccc(-c4ccccc4)cc3)NC(=O)[C@H](CC(C)C)NC2=O)c1` [Compound 1263] ({CH2CO}-[4Pal]Y(Carboxymethyl)D[Phe(3-Me)]L[Bip]V[Orn][dL][Dab]LVSCG-NH2; thioether N-14) stands 6.2 nM; under `CC(C)C[C@H]1NC(=O)[C@H](CCCN)NC(=O)[C@H](CCC(=O)O)NC(=O)[C@H](Cc2ccc(-c3ccccc3)cc2)NC(=O)[C@H](C(C)C)NC(=O)[C@H](Cc2ccccc2F)NC(=O)[C@H](CC(=O)O)NC(=O)[C@H](Cc2ccc(C#N)cc2)NC(=O)[C@H](CN)NC(=O)CSC[C@@H](C(=O)N[C@@H](C)C(N)=O)NC(=O)[C@H]([C@@H](C)O)NC(=O)[C@H](C(C)C)NC(=O)[C@H](CC2CCCCC2)NC(=O)[C@H](CCN)NC1=O` [Compound 2214], 15.4 nM; under `Cc1cccc(C[C@@H]2NC(=O)[C@H](CC(=O)O)NC(=O)[C@H](Cc3ccc(C(=O)O)cc3)NC(=O)[C@H](Cc3ccsc3)NC(=O)CSC[C@@H](C(=O)N[C@H](CC(N)=O)C(N)=O)NC(=O)[C@H](CO)NC(=O)[C@H](C(C)(C)O)NC(=O)[C@H](CC3CCCCC3)NC(=O)[C@H](CCN)NC(=O)[C@@H](CC(C)C)NC(=O)[C@H](CCCN)NC(=O)[C@H](Cc3ccc(C(=O)O)cc3)NC(=O)[C@H](Cc3ccc(-c4ccccc4)cc3)NC(=O)[C@H](Cc3ccc(OCC(=O)O)cc3)NC2=O)c1` [Compound 2656] ({CH2CO}-[3Thi][Phe(4-COOH)]D[Phe(3-Me)]Y(Carboxymethyl)[Bip][Phe(4-COOH)][Orn][dL][Dab][Cha][Val(3-OH)]SC[dN]-NH2; thioether N-14), 25 nM.
Under `CC(C)C[C@@H]1NC(=O)[C@H](Cc2c[nH]c3ccccc23)NC(=O)[C@H](CC(=O)O)NC(=O)[C@H](Cc2ccncc2)NC(=O)[C@H](Cc2ccc(OCC(=O)O)cc2)NC(=O)CSC[C@@H](C(=O)NCC(N)=O)NC(=O)[C@H](CO)NC(=O)[C@H](C(C)C)NC(=O)[C@H](CC(C)C)NC(=O)[C@H](CC(N)=O)NC(=O)[C@@H](CC(C)C)NC(=O)[C@H](CCCN)NC(=O)[C@H](C(C)C)NC(=O)[C@H](Cc2ccc(-c3ccccc3)cc2)NC1=O` [Compound 1286] ({CH2CO}-Y(Carboxymethyl)[4Pal]DWL[Bip]V[Orn][dL]NLVSCG-NH2; thioether N-14) stands 50.3 nM.
With `Cc1cccc(C[C@@H]2NC(=O)[C@H](CC(=O)O)NC(=O)[C@H](Cc3ccncc3)NC(=O)[C@H](CN)NC(=O)CSC[C@@H](C(=O)N[C@@H](C)C(N)=O)NC(=O)[C@H]([C@@H](C)O)NC(=O)[C@H](C(C)C)NC(=O)[C@H](CC(C)C)NC(=O)[C@H](CCN)NC(=O)[C@@H](CC(C)C)NC(=O)[C@H](CCCN)NC(=O)[C@H](CCCNC(N)=O)NC(=O)[C@H](Cc3ccc(-c4ccccc4)cc3)NC(=O)[C@H](C(C)C)NC2=O)c1` [Compound 1239] ({CH2CO}-[Dap][4Pal]D[Phe(3-Me)]V[Bip][Cit][Orn][dL][Dab]LVTCA-NH2; thioether N-14), the IC50 was found to be 14.3 nM.
`CC[C@H](C)[C@@H]1NC(=O)[C@H](Cc2ccc(-c3ccccc3)cc2)NC(=O)[C@H](C(C)C)NC(=O)[C@H](Cc2c[nH]c3ccccc23)NC(=O)[C@H](CC(=O)O)NC(=O)[C@H](Cc2ccc(O)cc2)NC(=O)[C@H](Cc2ccncc2)NC(=O)CSC[C@@H](C(=O)N[C@@H](C)C(N)=O)NC(=O)[C@H]([C@@H](C)O)NC(=O)[C@H](C(C)C)NC(=O)[C@H](CC(C)C)NC(=O)[C@H](CCN)NC(=O)[C@@H](CC(C)C)NC(=O)[C@H](CCCN)NC1=O` [Compound 1053] ({CH2CO}-[4Pal]YDWV[Bip]I[Orn][dL][Dab]LVTCA-NH2; thioether N-14): the IC50 was determined as 13.7 nM.
